Experimental data published in US11517587B2, “Drug therapy to inhibit chemotherapy-induced adverse effects and related pharmaceutical compositions, diagnostics, screening techniques and kits” (YALE UNIVERSITY, priority 2011, dated 2022).
Values belong to the molecule of their own block, whether it stands above or below them.

Key:
NCS-1 [1] = assay: NCS-1 levels by Western blot in Taxol-treated SHSY-5Y neuroblastoma cells; format: cell-based
Source text: (§1) Data shown are the average of three experiments.
as §1
More specifically, AV411 (ibudilast) is a drug used in several Asian countries for treatment of bronchial asthma, cerebrovascular disorders, post-stroke dizziness, and ocular allergies. In accordance with the Materials and Methods section of PNAS, Jun.
as §1

SHSY-5Y cells = assay: Intracellular Ca2+ signal in stimulated SHSY-5Y cells; format: cell-based
Method: FIG. 2A: Protection of the intracellular calcium signal by 1 uM AV411. […] After 200 seconds thapsigargin (TG, an inhibitor of the intracellular Ca^2+ pump) was added to indicate that the intracellular stores were filled and the cells were viable (second arrow). […] Each line represents the average of at least 45 cells (at least 15 cells measured in three separate experiments).
FIG. 2B: Protection of the intracellular calcium signal by 500 uM LiCl. Representative Ca^2+ responses of SHSY-5Y cells stimulated with 200 nM carbachol (at first arrow) to induce a transient release of Ca^2+ from intracellular stores. After 200 seconds thapsigargin (TG, an inhibitor of the intracellular Ca^2+ pump) was added to indicate that the intracellular stores were filled and the cells were viable (second arrow). […] Addition of 500 uM LiCl alone (pink trace)induced a small decrease in the Ca^2+ transient. […] Each line represents the average of at least 45 cells (at least 15 cells measured in three separate experiments.
FIG. 3B: Protection of the intracellular calcium signal by 5.0 mM LiCl. Representative Ca^2+ responses of SHSY-5Y cells treated with 800 ng/mL Taxol for 6 hours in the presence and absence of 5.0 mM. The experiment is the same as described for FIG. 2 except that 5 mM LiCl was used.
[…] After 200 seconds thapsigargin (TG, an inhibitor of the intracellular Ca^2+ pump) was added to indicate that the intracellular stores were filled and the cells were viable (second arrow). […] Each line represents the average of at least 45 cells (at least 15 cells measured in three separate experiments).
Intracellular Ca^2+ signals monitored in intact cells were also found to be reduced by treatment with Taxol for 6 hours (FIGS. 2B and 3B; compare control treatment (black trace) with Taxol treatment (blue trace) in both figures).

[2] = system: lung cancer cell line (H1975); assay: Xenograft tumor volume in nude mice; format: in vivo; conditions: LiCl in the presence of Taxol treatment, short time after initiation of co-therapy
Method: FIG. 4B: tumor volume effect.
One or more murine models as described in Richmond, et al., Mouse xenograft models vs GEM models for human cancer therapeutics, Dis Model Mech. 2008 September-October; 1(2-3): 78-82, are prepared. As explained by Richmond, et al., “[t]hese models are used to investigate the factors involved in malignant transformation, invasion and metastasis, as well as to examine response to therapy. One of the most widely used models is the human tumor xenograft. […] For example, the xenograft will be readily accepted by athymic nude mice, severely compromised immunodeficient (SCID) mice, or other immunocompromised mice (Morton and Houghton, 2007). Depending upon the number of cells injected, or the size of the tumor transplanted, the tumor will develop over 1-8 weeks (or in some instances 1-4 months, or longer), and the response to appropriate therapeutic regimes can be studied in vivo.”
Pursuant to the above protocol, a lung cancer cell line (H1975) was injected into nude mice; after two weeks tumors were large enough to measure. Exemplary dosages for use in the above murine models include 25 mg/kg taxol injected 1 time per week (2×), lithium (12.8 mg/kg) injected 1 hour prior to paclitaxel injection. Protection of NCS-1 levels and intracellular Ca^2+ signals in cells is evaluated using techniques as described in Examples 1-3.

[3] = target: NCS-1 / inositol 1,4,5 trisphosphate receptor (InsP3R) (Homo sapiens, UniProt P62166); assay: NCS-1 binding to the InsP3R
Source text: Based upon our observations regarding the activity of lithium carbonate, valproic acid, and chlorpromazine, we believe that there are additional drugs in these classes that will have the desired effect of preventing chemotherapy-induced polyneuropathy such as, but not limited to, […].

microtubule assembly = assay: Microtubule assembly; format: biochemical
Method: FIG. 5: Paclitaxel speeds up microtubule assembly.
The relative effects of paclitaxel-LiCl and paclitaxel-AV411 co-administration on microtubule assembly were also determined.

NCS-1 [4] = assay: NCS-1 levels in peripheral nerve and brain after low dose paclitaxel; format: in vivo, mice
Source text: FIG. 12: Low dose paclitaxel decreases NCS-1 levels in peripheral nerve, but not brain NCS-1 expression is maintained with lithium.

mice [5] = assay: Echocardiograms of mice injected with taxol; format: in vivo
Source text: FIG. 5B: The bottom three panels of the figure attached, is from echocardiograms done on mice injected with taxol. These are the same mice for which the xenograph study was done (shown at the top of the figure). […] These are both measurements of contractility. […] Heart rate was not altered.
Taxol causes cardiac arrhythmias. […] The recent data shown in the bottom three panels of the FIG. 5B, is information compiled from echocardiograms done on mice injected with taxol. These are the same mice upon which the xenograph study was done (shown at the top of the figure). […] These are both measurements of contractility, which was reversed by lithium pre-treatment. […] Heart rate was not altered. The cardiologist who performed the experiment at the request of the inventor(s) was quite impressed and is considering studies in human patients. There are studies in the literature showing that chemotherapy induced changes acutely in contractility can develop into long term heart rhythm problems.

calpain = assay: Calpain activity after low dose paclitaxel; format: in vivo, mice
Source text: FIG. 3: Low dose paclitaxel increases calpain activity. Lithium treatment prevents activation of calpain.

calcium release = assay: Calcium release after low dose paclitaxel; format: in vivo, mice; conditions: low doses of paclitaxel
Source text: FIG. 11: Low dose paclitaxel decreases calcium release Lithium treatment prevents loss of calcium release.

NCS-1 [6] = target: NCS-1 (Homo sapiens, UniProt P62166); assay: Tryptophan fluorescence binding to NCS-1
mice [7] = assay: Paclitaxel-induced myelin damage in mice; format: in vivo; conditions: paclitaxel-treated mice without Li-cotherapy
[8] = system: calcium signaling in cells; assay: Protection of calcium signaling by combination treatment / calpastatin expression; format: cell-based; conditions: combination treatment with Li and calpastatin (expression of calpastatin in cells)
Source text: FIG. 7: Combination treatment protects calcium signaling.
FIG. 8: Expression of calpastatin, a natural calpain antagonist, protects calcium signaling in cells.

Sequence of NCS-1 / inositol 1,4,5 trisphosphate receptor (InsP3R) (P62166 2-190 limits assumed, species assumed): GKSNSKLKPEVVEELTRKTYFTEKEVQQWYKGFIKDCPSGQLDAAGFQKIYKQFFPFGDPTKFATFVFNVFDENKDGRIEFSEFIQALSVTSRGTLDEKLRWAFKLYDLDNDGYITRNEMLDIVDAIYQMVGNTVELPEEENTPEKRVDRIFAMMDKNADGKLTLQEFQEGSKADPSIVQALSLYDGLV
Sequence of NCS-1 (Homo sapiens, UniProt P62166) (P62166 whole entry, species assumed): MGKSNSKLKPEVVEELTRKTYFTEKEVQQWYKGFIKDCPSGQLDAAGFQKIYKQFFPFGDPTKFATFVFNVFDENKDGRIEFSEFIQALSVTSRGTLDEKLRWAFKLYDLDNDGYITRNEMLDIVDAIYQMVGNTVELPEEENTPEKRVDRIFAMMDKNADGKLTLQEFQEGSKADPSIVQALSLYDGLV

Molecule: [Cl-].[Li+] [LiCl, lithium chloride]
NCS-1 levels (Western blot) (NCS-1 [1]; 500 uM and 5.0 mM LiCl in the presence of Taxol, 6 hours, SHSY-5Y): protected from the Taxol-induced degradation of NCS-1
NCS-1 levels (Western blot) (NCS-1 [1]; LiCl alone (500 uM, 5.0 mM)): did not reduce NCS-1 levels
Intracellular Ca2+ signals (SHSY-5Y cells; 500 uM or 5.0 mM LiCl in the presence of Taxol): signals similar to that of non-treated cells
Intracellular Ca2+ signals (SHSY-5Y cells; LiCl alone): decreased the intracellular signals, but not to the extent seen with Taxol treatment
Tumor volume [2]: statistically significant decrease in tumor volume

Molecule: CN(C)CCCN1c2ccccc2Sc2ccc(Cl)cc21 [chlorpromazine]
NCS-1 binding to InsP3R [3]: prevent neuronal calcium sensor 1 (NCS-1) from binding to the inositol 1,4,5 trisphosphate receptor (InsP3R)

Molecule: O=C([O-])[O-].[Li+].[Li+] [lithium carbonate]
NCS-1 binding to InsP3R [3]: prevent neuronal calcium sensor 1 (NCS-1) from binding to the inositol 1,4,5 trisphosphate receptor (InsP3R)

Calpain activity (calpain): increased calpain activity
Calcium release (calcium release): decreased calcium release
Binding to NCS-1 (NCS-1 [6]): binds to NCS-1
Molecule: CC(=O)O[C@H]1C(=O)[C@@]2(C)[C@H]([C@H](OC(=O)c3ccccc3)[C@]3(O)C[C@H](OC(=O)[C@H](O)[C@@H](NC(=O)c4ccccc4)c4ccccc4)C(C)=C1C3(C)C)[C@]1(OC(C)=O)CO[C@@H]1C[C@@H]2O [paclitaxel]
NCS-1 levels (Western blot) (NCS-1 [1]; paclitaxel (Taxol) alone, 800 ng/mL, 6 hours): decreased NCS-1 levels
NCS-1 levels (Western blot) (NCS-1 [1]; paclitaxel (Taxol) alone, 800 ng/mL, 6 hours, listed as Taxol): NCS-1 degradation
Microtubule assembly (microtubule assembly): accelerates microtubule assembly
Ca2+ response (SHSY-5Y cells; Taxol 800 ng/mL for 6 hours, stimulated with 1 uM ATP): response lower in amplitude than non-treated cells
Intracellular Ca2+ signals (SHSY-5Y cells; Taxol for 6 hours, 200 nM carbachol): reduced
NCS-1 levels in peripheral nerve and brain (NCS-1 [4]): decreased NCS-1 levels in peripheral nerve, but not in the brain
End diastolic diameter and fractional shortening (contractility) (mice [5]; 1 hour after taxol injection): end diastolic diameter and fractional shortening were altered
Heart rate (mice [5]; after taxol injection): not altered
Myelin damage (mice [7]): evident myelin damage enlarged structures

Molecule: CCCC(CCC)C(=O)O [valproic acid]
NCS-1 binding to InsP3R [3]: prevent neuronal calcium sensor 1 (NCS-1) from binding to the inositol 1,4,5 trisphosphate receptor (InsP3R)

B1: calpastatin: a natural calpain antagonist, expressed in cells (protein, UniProt P20810 1-708, looked up)
Calpastatin: MNPTETKAIPVSQQMEGPHLPNKKKHKKQAVKTEPEKKSQSTKLSVVHEKKSQEGKPKEHTEPKSLPKQASDTGSNDAHNKKAVSRSAEQQPSEKSTEPKTKPQDMISAGGESVAGITAISGKPGDKKKEKKSLTPAVPVESKPDKPSGKSGMDAALDDLIDTLGGPEETEEENTTYTGPEVSDPMSSTYIEELGKREVTIPPKYRELLAKKEGITGPPADSSKPIGPDDAIDALSSDFTCGSPTAAGKKTEKEESTEVLKAQSAGTVRSAAPPQEKKRKVEKDTMSDQALEALSASLGTRQAEPELDLRSIKEVDEAKAKEEKLEKCGEDDETIPSEYRLKPATDKDGKPLLPEPEEKPKPRSESELIDELSEDFDRSECKEKPSKPTEKTEESKAAAPAPVSEAVCRTSMCSIQSAPPEPATLKGTVPDDAVEALADSLGKKEADPEDGKPVMDKVKEKAKEEDREKLGEKEETIPPDYRLEEVKDKDGKPLLPKESKEQLPPMSEDFLLDALSEDFSGPQNASSLKFEDAKLAAAISEVVSQTPASTTQAGAPPRDTSQSDKDLDDALDKLSDSLGQRQPDPDENKPMEDKVKEKAKAEHRDKLGERDDTIPPEYRHLLDDNGQDKPVKPPTKKSEDSKKPADDQDPIDALSGDLDSCPSTTETSQNTAKDKCKKAASSSKAPKNGGKAKDSAKTTEETSKPKDD
Calcium signaling [8]: protected calcium signaling
